Reference: the supplement of paper PMC10307832

Key:
Experiment in all cases: relative viability (nuclei count vs DMSO), 5 days (fraction); higher = more cells survive
Carboplatin + Pemetrexed = compound: C1CC(C1)(C(=O)O)C(=O)O.[NH2-].[NH2-].[Pt+2] [Carboplatin] + Nc1nc2[nH]cc(CCc3ccc(C(=O)N[C@@H](CCC(=O)O)C(=O)O)cc3)c2c(=O)[nH]1 [Pemetrexed] (partner 0.2 µM)
How it was run: (§1)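 Dosing by pin tool came one day after lung cancer cell lines were seeded in 1536-well plates, using either one drug or a fixed anchor-drug dose plus five library-drug doses (not always all listed) in √10 steps. After 5 days, nuclei were counted on 4× images. Relative viability is treated-well nuclei count divided by vehicle-well nuclei count, and values are medians of duplicate plates.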

GSK126 + AZD7762 = compound: CC[C@H](C)N1C=C(C2=C(C=C(C=C21)C3=CN=C(C=C3)N4CCNCC4)C(=O)NCC5=C(C=C(NC5=O)C)C)C [GSK126] + NC(=O)Nc1cc(-c2cccc(F)c2)sc1C(=O)N[C@H]1CCCNC1 [AZD7762] (partner 0.2 µM)
How it was run: as §1

MLN4924 + Foretinib = compound: NS(=O)(=O)OC[C@@H]1C[C@@H](n2ccc3c(N[C@H]4CCc5ccccc54)ncnc32)C[C@@H]1O [MLN4924] + COc1cc2c(Oc3ccc(NC(=O)C4(C(=O)Nc5ccc(F)cc5)CC4)cc3F)ccnc2cc1OCCCN1CCOCC1 [Foretinib] (partner 0.25 µM)
How it was run: as §1

MLN4924 + Dasatinib = compound: NS(=O)(=O)OC[C@@H]1C[C@@H](n2ccc3c(N[C@H]4CCc5ccccc54)ncnc32)C[C@@H]1O [MLN4924] + Cc1nc(Nc2ncc(C(=O)Nc3c(C)cccc3Cl)s2)cc(N2CCN(CCO)CC2)n1 [Dasatinib] (partner 0.075 µM)
How it was run: as §1

| Cell Line | relative viability (Carboplatin + Pemetrexed; first compound 0.08 µM) | relative viability (Carboplatin + Pemetrexed; first compound 0.253 µM) | relative viability (Carboplatin + Pemetrexed; first compound 0.8 µM) | relative viability (Carboplatin + Pemetrexed; first compound 2.53 µM) | relative viability (Carboplatin + Pemetrexed; first compound 8 µM) | relative viability (GSK126 + AZD7762; first compound 0.08 µM) | relative viability (GSK126 + AZD7762; first compound 0.253 µM) | relative viability (GSK126 + AZD7762; first compound 0.8 µM) | relative viability (GSK126 + AZD7762; first compound 2.53 µM) | relative viability (GSK126 + AZD7762; first compound 8 µM) | relative viability (MLN4924 + Foretinib; first compound 0.04 µM) | relative viability (MLN4924 + Foretinib; first compound 0.1265 µM) | relative viability (MLN4924 + Foretinib; first compound 0.4 µM) | relative viability (MLN4924 + Foretinib; first compound 1.265 µM) | relative viability (MLN4924 + Foretinib; first compound 4 µM) | relative viability (MLN4924 + Dasatinib; first compound 0.04 µM) | relative viability (MLN4924 + Dasatinib; first compound 0.1265 µM) | relative viability (MLN4924 + Dasatinib; first compound 0.4 µM) | relative viability (MLN4924 + Dasatinib; first compound 1.265 µM) | relative viability (MLN4924 + Dasatinib; first compound 4 µM) |
| --- | --- | --- | --- | --- | --- | --- | --- | --- | --- | --- | --- | --- | --- | --- | --- | --- | --- | --- | --- | --- |
| PC-14 | 0.127 | 0.131 | 0.143 | 0.11 | 0.0992 | 0.335 | 0.314 | 0.35 | 0.417 | 0.312 | 1.1 | 0.852 | 0.43 | 0.174 | 0.139 | 0.304 | 0.294 | 0.195 | 0.0356 | 0.0313 |
| HCC-15 | 0.228 | 0.228 | 0.216 | 0.232 | 0.22 | 1.36 | 1.17 | 1.12 | 0.645 | 1.07 | 0.688 | 0.219 | 0.183 | 0.109 | 0.0915 | 0.498 | 0.183 | 0.132 | 0.0695 | 0.0802 |
| NCI-H2347 | 0.432 | 0.452 | 0.403 | 0.407 | 0.525 | 0.757 | 0.707 | 0.711 | 0.723 | 0.783 | 0.832 | 0.906 | 0.567 | 0.528 | 0.402 | 0.265 | 0.369 | 0.231 | 0.218 | 0.244 |
| LOU-NH91 | 0.348 | 0.378 | 0.372 | 0.381 | 0.378 | 0.789 | 0.737 | 0.714 | 0.822 | 0.727 | 0.945 | 0.952 | 0.896 | 0.539 | 0.413 | 0.554 | 0.708 | 0.778 | 0.494 | 0.415 |
| LCLC-103H | 0.448 | 0.479 | 0.468 | 0.517 | 0.474 | 0.847 | 0.86 | 0.786 | 0.778 | 0.843 | 0.85 | 0.896 | 0.861 | 0.175 | 0.15 | 0.452 | 0.569 | 0.653 | 0.141 | 0.112 |
| EMC-BAC-2 | 0.426 | 0.42 | 0.435 | 0.418 | 0.414 | 1.05 | 1.1 | 1.1 | 1.09 | 1.04 | 0.959 | 0.593 | 0.248 | 0.224 | 0.282 | 0.584 | 0.572 | 0.32 | 0.191 | 0.159 |
| NCI-H2228 | 0.397 | 0.338 | 0.311 | 0.376 | 0.313 |  |  |  |  |  | 1.07 | 0.69 | 0.512 | 0.302 | 0.147 | 0.524 | 0.638 | 0.14 | 0.107 | 0.11 |
| HOP-62 | 0.416 | 0.328 | 0.332 | 0.328 | 0.308 | 0.67 | 0.757 | 0.819 | 0.528 | 0.363 | 0.669 | 0.312 | 0.246 | 0.0894 | 0.0942 | 0.887 | 0.742 | 0.427 | 0.0794 | 0.076 |
| NCI-H727 |  |  |  |  |  | 0.683 | 0.619 | 0.539 | 0.64 | 0.458 | 0.863 | 0.737 | 0.515 | 0.285 | 0.335 | 0.374 | 0.404 | 0.305 | 0.293 | 0.266 |
| COR-L 105 | 1.13 | 1.27 | 1.18 | 0.854 | 0.615 |  |  |  |  |  | 0.697 | 0.654 | 0.396 | 0.292 | 0.258 | 0.398 | 0.289 | 0.33 | 0.222 | 0.225 |
| NCI-H358 | 0.179 | 0.21 | 0.188 | 0.16 | 0.174 | 0.552 | 0.471 | 0.482 | 0.768 | 0.476 | 0.781 | 0.694 | 0.397 | 0.0949 | 0.094 | 0.211 | 0.31 | 0.25 | 0.113 | 0.0832 |
| SK-MES-1 | 1.04 | 0.928 | 0.92 | 0.972 | 0.843 |  |  |  |  |  | 1.11 | 1.11 | 0.646 | 0.213 | 0.239 | 0.584 | 0.626 | 0.256 | 0.121 | 0.147 |
| LC-2-ad | 0.278 | 0.28 | 0.294 | 0.308 | 0.272 | 0.851 | 0.866 | 0.858 | 0.953 | 0.92 | 0.845 | 0.793 | 0.592 | 0.212 | 0.186 | 0.551 | 0.408 | 0.498 | 0.144 | 0.2 |
| H3255 | 0.589 | 0.531 | 0.58 | 0.529 | 0.563 | 1.08 | 0.887 | 0.938 | 1.05 | 0.788 | 0.799 | 0.746 | 0.34 | 0.285 | 0.278 | 0.314 | 0.349 | 0.296 | 0.256 | 0.235 |
| A-427 | 1.03 | 1.01 | 0.942 | 0.897 | 1.05 | 0.82 | 0.703 | 0.667 | 0.825 | 0.542 | 0.742 | 0.236 | 0.264 | 0.185 | 0.178 | 0.367 | 0.529 | 0.248 | 0.145 | 0.179 |
| NCI-H661 | 0.942 | 0.858 | 0.903 | 0.916 | 0.839 |  |  |  |  |  | 0.902 | 0.776 | 0.67 | 0.393 | 0.399 | 1 | 1.05 | 0.556 | 0.256 | 0.362 |
| NCI-H1993 | 0.684 | 0.568 | 0.513 | 0.67 | 0.608 | 0.836 | 0.754 | 0.702 | 0.9 | 0.795 | 0.624 | 0.59 | 0.517 | 0.553 | 0.602 | 0.622 | 0.524 | 0.557 | 0.491 | 0.51 |
